Reference: PMC3963422 (Journal of Visualized Experiments : JoVE, 2013)

What was measured:
[1] = cantilever array surface stress detection, D-Lac coated cantilevers, buffer; type: binding
[2] = cantilever bending in serum, D-Ala coated cantilevers; type: binding; conditions: 7 μM Van in serum (90% fetal calf serum plus 10% sodium phosphate buffer pH 7.4), 25 °C
[3] = cantilever bending in serum, D-Lac coated cantilevers; type: binding; conditions: 7 μM Van in serum (90% fetal calf serum plus 10% sodium phosphate buffer pH 7.4), 25 °C
[4] = D-Lac vs D-Ala peptide terminus; cited from earlier work
[5] = tested on: vancomycin-resistant Enterococcus (VRE); conditions: vancomycin-resistant Enterococcus (D-Lac); cited from earlier work

CN[C@H](CC(C)C)C(=O)N[C@H]1C(=O)N[C@@H](CC(N)=O)C(=O)N[C@H]2C(=O)N[C@H]3C(=O)N[C@H](C(=O)N[C@H](C(=O)O)c4cc(O)cc(O)c4-c4cc3ccc4O)[C@H](O)c3ccc(c(Cl)c3)Oc3cc2cc(c3O[C@@H]2O[C@H](CO)[C@@H](O)[C@H](O)[C@H]2O[C@H]2C[C@](C)(N)[C@H](O)[C@H](C)O2)Oc2ccc(cc2Cl)[C@H]1O [Van, vancomycin]
bending signal at high vancomycin concentration [1]: measureable bending signals | differential bending signal [2]: 105±4 nm | bending signal [3]: no bending was observed | reduction in Van-D-Lac binding affinity [4]: three orders of magnitude | therapeutic effectiveness against Enterococcal infections [5]: therapeutically ineffective
